According to ChEMBL document CHEMBL1201862, “PubChem BioAssay data set” (2004):
The source made the active and inactive calls.

Key:
[1] = ARNT/TACC3 interaction disruptors, potency, confirmation, biochemical, AlphaScreen, cherry-picked samples (AID 651703); format: functional, Homo sapiens;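 note: His-tagged ARNT PAS-B domain paired with GST-TACC3 E629A dimer coactivator fragment; potency of inhibitors that break up the complex and lower AlphaScreen signal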
[2] = biological target: Potassium voltage-gated channel subfamily KQT member 2 (Rattus norvegicus, UniProt O88943); test: KCNQ2 potassium channel inhibitors, dose response, cell-based, automated electrophysiology, set II, rat KCNQ2 (AID 588637); format: functional
[3] = biological target: Low molecular weight phosphotyrosine protein phosphatase (Homo sapiens, UniProt P24666); format: functional; settings: read-out: IC50_Mean;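 note: Dose-response confirmation assay measuring inhibition of LMPTP enzyme activity by fluorescence intensity read-out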
[4] = biological target: T1, Tyrosine-protein phosphatase non-receptor type 22 (Homo sapiens, UniProt Q9Y2R2); test: LYP phosphatase inhibition for selectivity, dose response, selectivity assay for LMPTP inhibitor project, biochemical, fluorescence, LYP catalytic domain (AID 652006); format: functional; settings: read-out: IC50_Mean
T1 sequence (Q9Y2R2 whole entry): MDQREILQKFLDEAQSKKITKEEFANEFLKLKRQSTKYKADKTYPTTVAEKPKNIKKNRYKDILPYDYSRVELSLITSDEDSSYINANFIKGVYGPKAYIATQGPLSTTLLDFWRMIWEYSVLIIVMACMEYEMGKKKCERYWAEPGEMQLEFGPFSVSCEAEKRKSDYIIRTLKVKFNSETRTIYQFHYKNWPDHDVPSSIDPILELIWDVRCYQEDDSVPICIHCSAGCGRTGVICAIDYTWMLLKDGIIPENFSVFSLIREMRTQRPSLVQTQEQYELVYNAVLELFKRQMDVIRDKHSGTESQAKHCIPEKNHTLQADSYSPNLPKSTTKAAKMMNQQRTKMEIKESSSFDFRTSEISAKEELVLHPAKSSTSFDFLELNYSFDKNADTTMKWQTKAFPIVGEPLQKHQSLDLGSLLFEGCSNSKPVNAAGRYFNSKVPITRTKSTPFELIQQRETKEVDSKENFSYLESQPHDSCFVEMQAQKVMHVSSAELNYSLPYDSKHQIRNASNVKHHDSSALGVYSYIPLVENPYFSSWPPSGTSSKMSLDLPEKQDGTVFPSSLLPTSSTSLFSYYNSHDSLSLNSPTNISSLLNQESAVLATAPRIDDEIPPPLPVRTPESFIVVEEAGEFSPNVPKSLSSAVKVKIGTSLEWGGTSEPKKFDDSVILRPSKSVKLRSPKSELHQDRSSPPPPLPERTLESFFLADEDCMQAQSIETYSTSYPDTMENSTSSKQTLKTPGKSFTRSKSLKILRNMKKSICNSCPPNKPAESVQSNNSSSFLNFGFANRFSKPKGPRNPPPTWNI

[5] = HEK293T cell cytotoxicity, dose response, cytotoxicity control for HIV Vif inhibitor project, cherry-picks (AID 652208); format: functional, cell-based
[6] = biological target: T2, Interleukin-8 (Homo sapiens, UniProt P10145); test: Dose Response confirmation of uHTS small molecule hits for cystic fibrosis induced NFkb Inhibitors in a PAF-induced IL8 counterscreen.; format: functional; settings: read-out: IC50_Mean
T2 sequence (P10145 whole entry): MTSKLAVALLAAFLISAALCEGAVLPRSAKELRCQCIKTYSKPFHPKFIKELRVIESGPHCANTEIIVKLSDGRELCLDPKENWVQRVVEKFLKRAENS

Chain of Potassium voltage-gated channel subfamily KQT member 2 (O88943 whole entry): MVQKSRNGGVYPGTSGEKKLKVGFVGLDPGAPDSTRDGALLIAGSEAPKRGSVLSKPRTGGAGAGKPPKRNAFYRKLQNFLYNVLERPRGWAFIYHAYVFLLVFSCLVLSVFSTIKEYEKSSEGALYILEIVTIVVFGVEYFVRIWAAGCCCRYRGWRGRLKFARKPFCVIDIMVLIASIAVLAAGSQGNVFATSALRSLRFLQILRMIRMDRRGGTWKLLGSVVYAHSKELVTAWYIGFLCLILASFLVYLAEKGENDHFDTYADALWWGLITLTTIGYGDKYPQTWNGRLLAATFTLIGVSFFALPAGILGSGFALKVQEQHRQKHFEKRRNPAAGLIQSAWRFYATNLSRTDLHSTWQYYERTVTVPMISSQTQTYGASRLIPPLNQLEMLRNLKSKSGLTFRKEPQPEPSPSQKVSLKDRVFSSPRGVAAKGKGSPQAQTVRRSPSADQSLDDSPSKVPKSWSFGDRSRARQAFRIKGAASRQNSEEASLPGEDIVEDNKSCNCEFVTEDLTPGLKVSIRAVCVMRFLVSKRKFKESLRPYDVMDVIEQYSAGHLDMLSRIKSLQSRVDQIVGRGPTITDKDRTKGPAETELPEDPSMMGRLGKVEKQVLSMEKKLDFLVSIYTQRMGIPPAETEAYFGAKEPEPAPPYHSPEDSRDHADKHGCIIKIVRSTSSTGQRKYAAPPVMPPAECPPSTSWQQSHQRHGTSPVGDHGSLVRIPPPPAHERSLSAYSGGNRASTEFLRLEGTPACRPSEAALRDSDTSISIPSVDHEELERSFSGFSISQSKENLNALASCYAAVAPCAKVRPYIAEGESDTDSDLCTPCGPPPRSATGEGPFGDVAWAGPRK
Chain of Low molecular weight phosphotyrosine protein phosphatase (P24666 whole entry, the tested form may be a part): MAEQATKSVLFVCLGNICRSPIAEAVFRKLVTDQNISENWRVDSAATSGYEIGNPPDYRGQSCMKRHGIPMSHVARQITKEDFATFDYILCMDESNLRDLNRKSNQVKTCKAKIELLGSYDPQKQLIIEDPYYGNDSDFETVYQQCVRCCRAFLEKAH

COc1cccc(/C=N/NC(=O)CNC(=O)c2cccnc2)c1O
AC50 [1]: 81.1 µM (active)

COc1ccccc1N1CCN(C(=O)C(Cc2ccccc2)NC(=O)C2CCCCC2)CC1 (stereo unspecified)
IC50 [2]: 5.72 µM (active)

Cc1cc(N2CCN(S(=O)(=O)c3ccc(Cl)c(Cl)c3)CC2)c2ccccc2n1
IC50 [3]: 19.5 µM (active)
IC50 [4]: 35.8 µM (inactive)
AC50 [5]: 50.5 µM (active)

CC(C)C[C@@H](CN1CCCC1CN1C(=S)NC[C@@H]1Cc1ccc(O)cc1)N1C[C@H](Cc2ccc(O)cc2)N(CCc2ccccc2)C1=S (stereo partly specified)
IC50 [6]: 9.82 µM (active)
